Literature values, collected in US12274695B2, “Pharmaceutical drug therapy for autism” (priority 2020, dated 2025).
Like-named read-outs stand apart in the source and are kept apart here.

Assays:
humans = details: in humans
fear conditioning = details: preclinical, after fear conditioning
[1] = test system: monkey model of schizophrenia
[2] = in vivo
[3] = test system: mouse model of Alzheimer's disease (AD)
adults with ASD = details: 7 mg transdermal nicotine, 1 week
[4] = test system: BTBR T+Itpr3 tf/J (BTBR) mice

| Compound | addictive or cardiovascular effects (humans) | extinction of fear memory and anxiety (fear conditioning) | working memory [1] | blood-brain barrier crossing [2] | plasma half-life compared with nicotine [2] | working memory [3] | Sleep ratings (adults with ASD) | Aberrant Behavior Checklist-Irritability (ABC-I) subscale change from baseline (adults with ASD; compared to placebo, five subjects) | tolerability (adults with ASD; eight subjects) | repetitive behaviors ([4]; BTBR mice) | social deficits ([4]; BTBR mice) | hotplate latency compared to vehicle ([4]; BTBR mice, higher doses) | hotplate latency compared to vehicle ([4]; BTBR mice, lower doses) | antinociceptive effects to noxious heat ([4]; control mice) | cold plate resistance ([4]; mice with Autism mutations, four-week nicotine treatment) |
| --- | --- | --- | --- | --- | --- | --- | --- | --- | --- | --- | --- | --- | --- | --- | --- |
| CN1C(=O)CC[C@H]1c1cccnc1 [Cotinine] | no addictive or cardiovascular effects | facilitated | improved | crosses the blood-brain barrier | longer | improved | – | – | – | – | – | – | – | – | – |
| CN1CCCC1c1cccnc1 (stereo not drawn) [nicotine, Nicotine] | – | – | – | – | – | – | improved | improved | tolerated nicotine treatment well | decrease repetitive behaviors | improve social deficits | decreased | increased | only at the high dose | increase |
